≈ marks a conversion by molar mass, not a printed value.
Tests used:
Format in all cases: functional
Human alphaherpesvirus 1 [1] = assay: Minimum inhibitory concentration causing 25% inhibition of cytopathic effect induced by Herpes simplex virus-1 (K979) in HEp-2 cells
Human alphaherpesvirus 1 [2] = assay: Minimum inhibitory concentration causing 25% inhibition of cytopathic effect induced by herpes simplex virus (HSV)-1 (K979) in vero cells.
Human alphaherpesvirus 1 [3] = assay: Minimum inhibitory concentration causing 25% inhibition of cytopathic effect induced by Herpes simplex virus-1 (Brand) in vero cells
Human alphaherpesvirus 1 [4] = assay: Minimum inhibitory concentration causing 25% inhibition cytopathic effect induced by Herpes simplex virus-1 (Brand) in HEp-2 cells
Human alphaherpesvirus 1 [5] = assay: Mean survival time in HSV-1 infected mice, after intraperitoneal administration of 0.5 mg/kg of compound
Human alphaherpesvirus 1 [6] = assay: Mean survival time in HSV-1 infected mice, after intraperitoneal administration of 1 mg/kg of compound
Human alphaherpesvirus 1 [7] = assay: Mean survival time in HSV-1 infected mice, after intraperitoneal administration of 5 mg/kg of compound
Human alphaherpesvirus 1 [8] = assay: Mean survival time in HSV-1 infected mice, after peroral administration of 10 mg/kg of compound; settings: route oral
Human alphaherpesvirus 1 [9] = assay: Mean survival time in HSV-1 infected mice, after peroral administration of 1 mg/kg of compound; settings: route oral
Human alphaherpesvirus 1 [10] = assay: Mean survival time in HSV-1 infected mice, after peroral administration of 5 mg/kg of compound; settings: route oral
Human alphaherpesvirus 1 [11] = assay: Cumulative mortality in percent of HSV-1 infected mice, after intraperitoneal administration of 0.5 mg/kg of compound
Human alphaherpesvirus 1 [12] = assay: Cumulative mortality in percent of HSV-1 infected mice, after intraperitoneal administration of 1 mg/kg of compound
Human alphaherpesvirus 1 [13] = assay: Cumulative mortality in percent of HSV-1 infected mice, after intraperitoneal administration of 5 mg/kg of compound
Human alphaherpesvirus 1 [14] = assay: Cumulative mortality in percent of HSV-1 infected mice, after peroral administration of 1 mg/kg of compound; settings: route oral
Human alphaherpesvirus 1 [15] = assay: Cumulative mortality in percent of HSV-1 infected mice, after peroral administration of 5 mg/kg of compound; settings: route oral
Human alphaherpesvirus 1 [16] = assay: Cumulative mortality in percent of HSV-1 infected mice, after peroral administration of 10 mg/kg of compound; settings: route oral
Oryctolagus cuniculus = species: Oryctolagus cuniculus; assay: Minimum cytotoxic concentration causing toxic effects on uninfected cells in rabbit
Mus musculus [17] = assay: Cumulative lesions in HSV-1 infected mice, after administration of 0.1 % of compound intracutaneously
Mus musculus [18] = assay: Mean duration of lesions in HSV-1 infected mice, after administration of 0.1 % of compound intracutaneously
Human alphaherpesvirus 1 [19] = assay: Minimum inhibitory concentration causing 25% inhibition of cytopathic effect induced by Herpes simplex virus(HSV) -1 (thymidine kinase deficient) in HEp-2 cells
Human alphaherpesvirus 1 [20] = assay: Minimum inhibitory concentration causing 25% inhibition of cytopathic effect induced by Herpes simplex virus(HSV) -1 (thymidine kinase deficient) in vero cells
Human alphaherpesvirus 2 [21] = assay: Minimum inhibitory concentration causing 25% inhibition of cytopathic effect induced by Herpes simplex virus(HSV) -2 (thymidine kinase deficient) in HEp-2 cells
Human alphaherpesvirus 2 [22] = assay: Minimum inhibitory concentration causing 25% inhibition of cytopathic effect induced by Herpes simplex virus(HSV) -2 (thymidine kinase deficient) in vero cells

Row | SMILES | MIC (Human alphaherpesvirus 1 [1]) [µM] | MIC (Human alphaherpesvirus 1 [2]) [µM] | MIC (Human alphaherpesvirus 1 [3]) [µM] | MIC (Human alphaherpesvirus 1 [4]) [µM] | MST (Human alphaherpesvirus 1 [5]) [days] | MST (Human alphaherpesvirus 1 [6]) [days] | MST (Human alphaherpesvirus 1 [7]) [days] | MST (Human alphaherpesvirus 1 [8]) [days] | MST (Human alphaherpesvirus 1 [9]) [days] | MST (Human alphaherpesvirus 1 [10]) [days] | CMP (Human alphaherpesvirus 1 [11]) | CMP (Human alphaherpesvirus 1 [12]) | CMP (Human alphaherpesvirus 1 [13]) | CMP (Human alphaherpesvirus 1 [14]) | CMP (Human alphaherpesvirus 1 [15]) | CMP (Human alphaherpesvirus 1 [16]) | MTC (Oryctolagus cuniculus) | further results
1 | CCOC(=O)CP(=O)(O)OC[C@H]1O[C@@H](n2cc(CCCl)c(=O)[nH]c2=O)C[C@@H]1O | > 227 | > 227 | > 227 | > 227 | 12.2 | 11.3 | 15.5 | 15.9 | 11.9 | 13.6 | 75 | 83 | 42 | 83 | 58 | 42 | 749 µM | 
2 | CCOC(=O)CP(=O)(OC)OC[C@H]1O[C@@H](n2ccc(=O)[nH]c2=O)C[C@@H]1O (some centres undefined) | > 255 | > 255 | > 255 | > 255 |  |  |  |  |  |  |  |  |  |  |  |  | >=842 uM | 
3 | COP(=O)(CC(=O)OC[C@H]1O[C@@H](n2cc(C)c(=O)[nH]c2=O)C[C@@H]1O)OC | > 255 | > 255 | > 255 | > 255 |  |  |  |  |  |  |  |  |  |  |  |  | >=842 uM | 
4 | CCOC(=O)P(=O)(O)O[C@H]1C[C@H](n2cc(CCCl)c(=O)[nH]c2=O)O[C@@H]1CO | > 234 | > 234 | 234 (≈ 99.9 µg/mL) | > 234 | 11.5 | 15.6 | 18.9 | 11.8 | 11.3 | 11.9 | 83 | 42 | 8 | 83 | 75 | 75 | >=773 uM | lesions (Mus musculus [17]): 90; MDL (Mus musculus [18]): 9.7 days
5 | COC(=O)P(=O)(O)O[C@H]1C[C@H](n2cc(CCCl)c(=O)[nH]c2=O)O[C@@H]1CO | > 242 | > 242 | > 242 | > 242 |  |  |  |  |  |  |  |  |  |  |  |  | >=800 uM | 
6 | O=C(OCc1ccccc1)P(=O)(O)OC[C@H]1O[C@@H](n2cc(CCCl)c(=O)[nH]c2=O)C[C@@H]1O | > 205 | > 205 | 20.5 (≈ 10 µg/mL) | 20.5 (≈ 10 µg/mL) | 13.8 | 16.3 | 19.3 | 16.8 | 12.7 | 14.3 | 67 | 33 | 8 | 67 | 50 | 33 | 675 µM | MIC (Human alphaherpesvirus 1 [19]): > 205 µM; MIC (Human alphaherpesvirus 1 [20]): 20.5 µM (≈ 10 µg/mL); MIC (Human alphaherpesvirus 2 [21]): > 205 µM; MIC (Human alphaherpesvirus 2 [22]): 205 µM (≈ 100 µg/mL); lesions (Mus musculus [17]): 100; MDL (Mus musculus [18]): 8.1 days
7 | CC(C)(C)OC(=O)CP(=O)(O)OC[C@H]1O[C@@H](n2cc(CCCl)c(=O)[nH]c2=O)C[C@@H]1O | > 213 | > 213 | > 213 | > 213 | 12.9 | 12.8 | 15.4 | 13.3 | 11.5 | 11.3 | 67 | 67 | 50 | 83 | 83 | 58 | >=704 uM | 
8 | COC(=O)P(=O)(O)OC[C@H]1O[C@@H](n2cc(CCCl)c(=O)[nH]c2=O)C[C@@H]1O | 242 (≈ 99.9 µg/mL) | > 242 | 24.2 (≈ 9.99 µg/mL) | 24.2 (≈ 9.99 µg/mL) | 11.8 | 14.1 | 16.3 | 13.7 | 12.6 | 12.7 | 75 | 58 | 33 | 75 | 67 | 75 | >=800 uM | MIC (Human alphaherpesvirus 1 [19]): > 242 µM; MIC (Human alphaherpesvirus 1 [20]): 242 µM (≈ 99.9 µg/mL); MIC (Human alphaherpesvirus 2 [21]): > 242 µM; MIC (Human alphaherpesvirus 2 [22]): > 242 µM
9 | CCOC(=O)CP(=O)(O)O[C@H]1C[C@H](n2cc(CCCl)c(=O)[nH]c2=O)O[C@@H]1CO | > 227 | > 227 | > 227 | > 227 |  |  |  |  |  |  |  |  |  |  |  |  | 749 µM | lesions (Mus musculus [17]): 80; MDL (Mus musculus [18]): 9.4 days
10 | COP(=O)(CC(=O)O[C@H]1C[C@H](n2cc(CCCl)c(=O)[nH]c2=O)O[C@@H]1CO)OC | 6.8 (≈ 3 µg/mL) | 22.7 (≈ 10 µg/mL) | 0.7 (≈ 0.309 µg/mL) | 68.1 (≈ 30 µg/mL) |  |  |  |  |  |  |  |  |  |  |  |  | 227 µM | MIC (Human alphaherpesvirus 1 [19]): > 227 µM; MIC (Human alphaherpesvirus 1 [20]): 227 µM (≈ 100 µg/mL); MIC (Human alphaherpesvirus 2 [21]): > 227 µM; MIC (Human alphaherpesvirus 2 [22]): 227 µM (≈ 100 µg/mL)
11 | CCOC(=O)P(=O)(Nc1ccccc1)OC[C@H]1O[C@@H](n2cc(CCCl)c(=O)[nH]c2=O)C[C@@H]1O (some centres undefined) | 59.8 (≈ 30 µg/mL) | > 199 | 2 (≈ 1 µg/mL) | 2 (≈ 1 µg/mL) | 13.1 | 13.9 | 18 | 17.8 | 11.4 | 15.4 | 75 | 67 | 25 | 100 | 50 | 25 | 658 µM | MIC (Human alphaherpesvirus 1 [19]): > 199 µM; MIC (Human alphaherpesvirus 1 [20]): 59.8 µM (≈ 30 µg/mL); MIC (Human alphaherpesvirus 2 [21]): > 199 µM; MIC (Human alphaherpesvirus 2 [22]): 199 µM (≈ 99.9 µg/mL)
12 | CCOC(=O)CP(=O)(OC)OC[C@H]1O[C@@H](n2cc(C)c(=O)[nH]c2=O)C[C@@H]1O (some centres undefined) | > 246 | > 246 | > 246 | > 246 |  |  |  |  |  |  |  |  |  |  |  |  | >=812 uM | 
13 | CCOC(=O)P(=O)(OC)OC[C@H]1O[C@@H](n2cc(C)c(=O)[nH]c2=O)C[C@@H]1O (some centres undefined) | > 255 | > 255 | > 255 | > 255 |  |  |  |  |  |  |  |  |  |  |  |  | >=842 uM | 
14 | CCOC(=O)P(=O)(OC)OC[C@H]1O[C@@H](n2ccc(=O)[nH]c2=O)C[C@@H]1O (some centres undefined) | > 264 | > 264 | > 264 | > 264 |  |  |  |  |  |  |  |  |  |  |  |  | >=872 uM | 

From ChEMBL document CHEMBL1124209, “Phosphonoformate and phosphonoacetate derivatives of 5-substituted 2'-deoxyuridines: synthesis and antiviral activity” (1988)
